Laboratory results: patent US8389523B2, “Substituted quinoxaline and an agrochemical composition thereof” (Kumiai Chemical Industry Co., Ltd., priority 2007, dated 2013)

Experiments:
Type in all cases: in vivo
Parameters in all cases: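 grade 0 to 5 of growth suppression where 5 is 90% or more and 0 below 10%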
[1] = test system: Monochoria vaginalis (Burm. f.) Presl var. plantaginea (Roxb.) Solms-Laub.; assay: Herbicidal effects in paddy field soil treatment (Test Example 1); conditions: paddy field soil treatment; 1000 g of the active ingredient per hectare; wettable powder added dropwise on water surface; 21st day after treatment
In short: (§1)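 Flooded-paddy soil treatment under greenhouse conditions: a diluted wettable powder at 1000 g a.i./ha went onto the water surface one day post-sowing, with 3 cm standing water, and weed control was graded on a scoring scale 21 days after treatment.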

[2] = test system: Echinochloa oryzicola Vasing; assay: as above; conditions: paddy field soil treatment; 1000 g of the active ingredient per hectare; wettable powder added dropwise on water surface; 21st day after treatment
In short: as §1

[3] = test system: Scirpus juncoides Roxb. var. ohwianus. T. Koyama; assay: as above; conditions: paddy field soil treatment; 1000 g of the active ingredient per hectare; wettable powder added dropwise on water surface; 21st day after treatment
In short: as §1

[4] = test system: Amaranthus viridis L.; assay: Herbicidal effects in upland field soil treatment (Test Example 2); conditions: 1000 g active ingredient per hectare, 21st day after treatment, criteria of Table 138
In short: (§2)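 Soil-applied before emergence at 1000 g a.i./ha as water-diluted wettable powder; greenhouse-grown plants rated for herbicidal damage 21 days post-treatment.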

[5] = test system: Abutilon theophrasti medicus; assay: as above; conditions: 1000 g active ingredient per hectare, 21st day after treatment, criteria of Table 138
In short: as §2

[6] = test system: Amaranthus viridis L.; assay: Herbicidal effects in upland field foliar treatment (Test Example 3); conditions: criteria of Table 138; for herbicidal effects on Amaranthus viridis L.: 1000 g of the active ingredient per hectare, 14th day after the treatment, wettable powder; for herbicidal effect (index) on Amaranthus viridis L.: 1000 g active ingredient per hectare, 14th day after treatment
In short: (§3)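 Post-emergence foliar treatment: two-week-old seedlings from upland field soil received 1000 g a.i./ha (wettable powder, 1000 L water/ha), then returned to the greenhouse for scoring 14 days later.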

[7] = test system: Abutilon theophrasti medicus; assay: as above; conditions: criteria of Table 138; for herbicidal effects on Abutilon theophrasti medicus: 1000 g of the active ingredient per hectare, 14th day after the treatment, wettable powder; for herbicidal effect (index) on Abutilon theophrasti medicus: 1000 g active ingredient per hectare, 14th day after treatment
In short: as §3

[8] = test system: Echinochloa crus-galli (L.) P. Beauv. var. crus-galli; assay: as above; conditions: criteria of Table 138; for herbicidal effects on Echinochloa crus-galli (L.) P. Beauv. var. crus-galli: 1000 g of the active ingredient per hectare, 14th day after the treatment, wettable powder; for herbicidal effect (index) on Echinochloa crus-galli (L.) P. Beauv. var. crus-galli: 1000 g active ingredient per hectare, 14th day after treatment
In short: as §3

SMILES | Herbicidal effects index, Monochoria vaginalis (Burm. f.) Presl var. plantaginea (Roxb.) Solms-Laub. [1] | Herbicidal effects index, Echinochloa oryzicola Vasing [2] | Herbicidal effects index, Scirpus juncoides Roxb. var. ohwianus. T. Koyama [3] | herbicidal effect (index) on Amaranthus viridis L. [4] | herbicidal effect (index) on Abutilon theophrasti medicus [5] | herbicidal effects on Amaranthus viridis L. [6] | herbicidal effects on Abutilon theophrasti medicus [7] | herbicidal effects on Echinochloa crus-galli (L.) P. Beauv. var. crus-galli [8] | herbicidal effect (index) on Amaranthus viridis L. [6] | herbicidal effect (index) on Abutilon theophrasti medicus [7] | herbicidal effect (index) on Echinochloa crus-galli (L.) P. Beauv. var. crus-galli [8]
CC(c1ccccc1)n1c(=O)c(C(=O)C2=C(O)CCCC2=O)nc2cccnc21 (stereo not drawn) [III-130] | 5 | 5 | 5 | 5 | 5 | 5 | 5 | 5 | – | – | –
O=C1CCCC(O)=C1C(=O)c1nc2ccccc2n(-c2cccnc2)c1=O [I-185] | 5 | 5 | 5 | 5 | 5 | – | – | – | 5 | 5 | 5
Cc1nnc(-n2c(=O)c(C(=O)C3=C(O)CCCC3=O)nc3ccccc32)s1 [I-270] | 5 | 5 | 5 | 5 | 5 | – | – | – | 5 | 5 | 5
O=C1CCCC(O)=C1C(=O)c1nc2cccnc2n(-c2ccccc2Cl)c1=O [IV-9] | 5 | 5 | 5 | 5 | 5 | 5 | 5 | 5 | – | – | –
O=C1CCCC(O)=C1C(=O)c1nc2c(F)cccc2n(-c2ccccc2)c1=O [II-233] | 5 | 5 | 5 | 5 | 5 | 5 | 5 | 5 | – | – | –
O=C1CCCC(O)=C1C(=O)c1nc2cc(F)c(F)cc2n(-c2ccccc2)c1=O [II-260] | 5 | 5 | 5 | 5 | 5 | 5 | 5 | 5 | – | – | –
O=C1CCCC(O)=C1C(=O)c1nc2ccccc2n(-c2cccc([N+](=O)[O-])c2)c1=O [II-130] | 5 | 5 | 5 | 5 | 5 | 5 | 5 | 5 | – | – | –
COc1c(Cl)cc(-n2c(=O)c(C(=O)C3=C(O)CCCC3=O)nc3ccccc32)cc1Cl [II-221] | 5 | 4 | 5 | 5 | 4 | 5 | 5 | 5 | – | – | –
CC1(C)CC(=O)C(C(=O)c2nc3cccnc3n(-c3ccccc3)c2=O)=C(O)C1 [IV-3] | 5 | 5 | 5 | 5 | 5 | 5 | 5 | 5 | – | – | –
COc1ccc2nc(C(=O)C3=C(O)CCCC3=O)c(=O)n(-c3cc(F)c(OC)cc3F)c2c1 [II-254] | 5 | 5 | 5 | 5 | 4 | 5 | 4 | 5 | – | – | –
O=C1CCCC(O)=C1C(=O)c1nc2ccccc2n(-c2ccc3occc3c2)c1=O [I-277] | 5 | 5 | 5 | 5 | 4 | – | – | – | 5 | 5 | 5
COc1ccc(-n2c(=O)c(C(=O)C3=C(O)CC(C)(C)CC3=O)nc3ccccc32)cc1 [II-64] | 5 | 5 | 4 | 5 | 4 | 5 | 5 | 5 | – | – | –
O=C1CCCC(O)=C1C(=O)c1nc2ccccc2n(CC(F)(F)F)c1=O [I-40] | 5 | 5 | 5 | 5 | 5 | – | – | – | 5 | 5 | 5
Cn1nc(-n2c(=O)c(C(=O)C3=C(O)CCCC3=O)nc3ccccc32)cc1C(F)(F)F [I-267] | 5 | 5 | 5 | 5 | 5 | – | – | – | 5 | 5 | 5
CCc1ccc(-n2c(=O)c(C(=O)C3=C(O)CCCC3=O)nc3cccnc32)cc1 [IV-24] | 5 | 5 | 5 | 5 | 5 | 5 | 4 | 5 | – | – | –
O=C1CCCC(O)=C1C(=O)c1nc2ccccc2n(-c2ccccc2Cl)c1=O [II-9] | 5 | 5 | 5 | 4 | 5 | – | – | – | 5 | 5 | 5
O=C(C1=C(O)C2CCC(C2)C1=O)c1nc2ccccc2n(-c2ccc(Cl)cc2)c1=O (stereo not drawn) [II-14] | 5 | 5 | 5 | 5 | 5 | 5 | 4 | 5 | – | – | –
CCn1c(=O)c(C(=O)C2=C(O)CCCC2=O)nc2ccccc21 [Compound I-7] | 5 | 5 | 5 | 5 | 5 | – | – | – | 5 | 5 | 4
